Measured values published in patent US20260103465A1, “GLYCOGEN SYNTHASE KINASE 3 INHIBITORS AND USES THEREOF” (The Broad Institute, Inc., priority 2023, published 2026).
Read-outs that look alike come from different tables or passages of the source.

Key:
[1] = molecular target: T1, GSK3a (GST-full length GSK3a) (Homo sapiens, UniProt P49840); experiment: GSK3a TR-FRET kinase inhibition assay; type: biochemical
T1 construct: GST-full length GSK3a [SignalChem G08-10G]; purchased SignalChem G08-10G
T1 sequence (P49840 whole entry): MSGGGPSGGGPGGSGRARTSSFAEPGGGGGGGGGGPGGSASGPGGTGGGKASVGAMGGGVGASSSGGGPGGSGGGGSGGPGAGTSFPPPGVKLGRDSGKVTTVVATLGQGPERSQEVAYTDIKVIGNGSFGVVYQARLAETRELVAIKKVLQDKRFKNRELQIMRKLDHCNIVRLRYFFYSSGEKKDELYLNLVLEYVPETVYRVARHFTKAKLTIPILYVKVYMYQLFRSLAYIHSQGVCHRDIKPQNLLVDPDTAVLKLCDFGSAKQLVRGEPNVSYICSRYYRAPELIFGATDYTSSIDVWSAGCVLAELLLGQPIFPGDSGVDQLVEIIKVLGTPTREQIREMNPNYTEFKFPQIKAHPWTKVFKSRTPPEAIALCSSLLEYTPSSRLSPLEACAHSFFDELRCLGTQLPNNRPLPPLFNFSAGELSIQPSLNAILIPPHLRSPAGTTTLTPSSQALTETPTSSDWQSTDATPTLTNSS
Summary of the method: (§1)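 IC50 derived from normalized 665/615 TR-FRET signal (Tb anti-pSer641 antibody, streptavidin-d2), read after EDTA stop. Reaction: 1 nM GST-full-length enzyme, 30 min compound pre-incubation, 100 min at ambient temperature in Tris pH 7.5 with 1% DMSO, 200 nM biotinylated primed glycogen synthase peptide, ATP 2 μM to 1 mM.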

[2] = molecular target: T2, GSK3b (GST-full length GSK3b) (Homo sapiens, UniProt P49841); experiment: GSK3b TR-FRET kinase inhibition assay; type: biochemical
T2 construct: GST-full length GSK3b: [SignalChem G08-9G]; purchased SignalChem G08-9G
T2 sequence (P49841 whole entry): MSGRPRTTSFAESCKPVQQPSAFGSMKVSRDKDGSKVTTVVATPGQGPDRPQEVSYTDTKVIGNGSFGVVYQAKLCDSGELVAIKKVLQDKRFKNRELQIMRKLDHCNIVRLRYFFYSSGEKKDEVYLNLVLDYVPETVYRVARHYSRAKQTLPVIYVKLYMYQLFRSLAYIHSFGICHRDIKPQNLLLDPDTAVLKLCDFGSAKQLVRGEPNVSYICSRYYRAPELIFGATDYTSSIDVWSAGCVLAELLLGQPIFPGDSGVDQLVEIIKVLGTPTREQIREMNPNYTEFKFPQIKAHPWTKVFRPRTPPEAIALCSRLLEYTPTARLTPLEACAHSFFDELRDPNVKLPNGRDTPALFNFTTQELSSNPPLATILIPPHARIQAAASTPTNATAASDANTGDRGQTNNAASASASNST
Summary of the method: as §1

[3] = Human liver microsomal stability; type: in vitro ADME; settings: for half-life at 1 µM: human, liver microsomes; for Microsome Stability (Human) (DMPK_BIIB); Mean; in vitro t1/2: human liver microsomes
Summary of the method: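 Compound incubated at 1 µM with human liver microsomes for 60 min at 37 °C, in duplicate. Percent remaining derived from compound level at 60 min relative to 0 min. Controls: microsomes with NADPH and no compound; compound with microsomes lacking NADPH.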

MDR1 = experiment: MDR1/MDCK permeability assay; type: in vitro ADME; settings: dog; for Papp A→B at 120 min, 5 µM: MDCK-MDR1, pH 7.4, A to B; for Papp B→A at 120 min, 5 µM: MDCK-MDR1, pH 7.4, B to A; for efflux ratio at 120 min, 5 µM: MDCK-MDR1, pH 7.4, Papp B-A/A-B, Mean, P. Ratio(B-A/A-B) Efflux Ratio
Summary of the method: (§2)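 Confluent MDR1-MDCK monolayers (7–11 days old), compound dosed at 5 μM in HBSSg (≤1% DMSO) apically or basolaterally, pH 7.4 both sides, receiver with 1% BSA, N=2. Both sides sampled at 120 min and quantified by LC-MS/MS; Papp in each direction, efflux ratio B-A/A-B and recovery reported.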

[4] = system: MDR1-MDCK cell monolayers; experiment: MDR1/MDCK permeability assay; type: in vitro ADME; settings: for MDCK Permeability (MDR1-MDCK); Mean; Papp(A-B) (10^−6 cm/s): A to B; for MDCK Permeability (MDR1-MDCK); Mean; Papp(B-A) (10^−6 cm/s): B to A
Summary of the method: as §2

[5] = 10 μM ATP, read-out: GSK3a 10 μM ATP Average IC50
[6] = 100 μM ATP, read-out: GSK3a 100 μM ATP Average IC50
[7] = 1 mM ATP, Table 3, read-out: GSK3a TR-FRET 1 mM ATP Average IC50
[8] = 10 μM ATP, read-out: GSK3b 10 μM ATP Average IC50
[9] = 100 μM ATP, read-out: GSK3b 100 μM ATP Average IC50
[10] = 1 mM ATP, Table 3, read-out: GSK3b TR-FRET 1 mM ATP Average IC50

SMILES | IC50 [1, 5] | IC50 [1, 6] | IC50 [1, 7] | IC50 [2, 8] | IC50 [2, 9] | IC50 [2, 10] | Microsome Stability (Human) (DMPK_BIIB); Mean; in vitro t1/2 ([3]; Table 4) | MDCK Permeability (MDR1-MDCK); Mean; Papp(A-B) (10^−6 cm/s) ([4]; Table 4) | MDCK Permeability (MDR1-MDCK); Mean; Papp(B-A) (10^−6 cm/s) ([4]; Table 4) | MDCK Permeability (MDR1-MDCK); Mean; P. Ratio(B-A/A-B) Efflux Ratio ([4]; Papp B-A/A-B, Table 4) | other results
CCC1(c2ccccc2)C2=C(CC(C)(C)CC2=O)Nc2ncc(C(F)(F)F)cc21 (single isomer, unassigned) [Compound 133A] | ≤ 0.1 µM | 0.1 to 1 µM | 1 to 5 µM | ≤ 0.1 µM | 0.1 to 1 µM | 1 to 5 µM |  |  |  |  | half-life at 1 µM ([3]; Table 3, read-out: Microsome Stability (Human) (DMPK_BIIB), Mean, in vitro t1/2): 78 min; half-life at 1 µM ([3]; Table 4, read-out: Microsome Stability (Human) (DMPK_BIIB), Mean, in vitro t1/2): 1.4 min; Papp A→B at 120 min, 5 µM (MDR1; Table 3): 14 ×10⁻⁶ cm/s; Papp A→B at 120 min, 5 µM (MDR1; Table 4): 13 ×10⁻⁶ cm/s; Papp B→A at 120 min, 5 µM (MDR1; Table 3): 8.2 ×10⁻⁶ cm/s; Papp B→A at 120 min, 5 µM (MDR1; Table 4): 19 ×10⁻⁶ cm/s; efflux ratio at 120 min, 5 µM (MDR1; Table 3, read-out: MIDCK Permeability (MDR1-MDCK)): 0.56; efflux ratio at 120 min, 5 µM (MDR1; Table 4, read-out: MDCK Permeability (MDR1-MDCK)): 1.5
CCC1(c2cccc(-c3ccncc3C)c2)C2=C(CC(C)(C)CC2=O)Nc2ncccc21 (single isomer, unassigned) [Compound 1020B] |  |  |  |  |  |  | 6.4 min | 14 10^−6 cm/s | 24 10^−6 cm/s | 1.8 | IC50 ([1]; 4 μM ATP, read-out: GSK3α TR-FRET 4 μM ATP GMean IC50): ≤ 0.1 µM; IC50 ([1]; 1 mM ATP, Table 4, read-out: GSK3α TR-FRET 1 mM ATP GMean IC50): 0.1 to 1 µM; IC50 ([2]; 2 μM ATP, read-out: GSK3β TR-FRET 2 μM ATP GMean IC50): ≤ 0.1 µM; IC50 ([2]; 1 mM ATP, Table 4, read-out: GSK3β TR-FRET 1 mM ATP GMean IC50): 1 to 5 µM
CCC1(c2ccccc2)C2=C(CC(C)(C)CC2=O)Nc2ncc(F)cc21 (single isomer, unassigned) [Compound 114A] | ≤ 0.1 µM | ≤ 0.1 µM | 0.1 to 1 µM | ≤ 0.1 µM | ≤ 0.1 µM | 1 to 5 µM | 37 min | 10 10^−6 cm/s | 20 10^−6 cm/s | 2.0 | Microsome Stability (Human) (DMPK_BIIB); Mean; in vitro t1/2 ([3]; Table 3): 49 min; MDCK Permeability (MDR1-MDCK); Mean; Papp(A-B) (10^−6 cm/s) ([4]; Table 3): 23 10^−6 cm/s; MDCK Permeability (MDR1-MDCK); Mean; Papp(B-A) (10^−6 cm/s) ([4]; Table 3): 16 10^−6 cm/s; MIDCK Permeability (MDR1-MDCK); Mean; P. Ratio(B-A/A-B) Efflux Ratio ([4]; Papp B-A/A-B, Table 3): 0.68
